Entries after “also recorded” stand apart in the source; their conditions may differ.
How the values were obtained:
ICAM-1 = assay: TNF-α-induced cell surface expression of ICAM-1 in HUVECs measured by FACS; format: cell-based, human; details: then 5 ng/ml TNF-α; for reduction of TNF-α-induced ICAM-1 expression: 10 μmol/L pretreatment 6 hours, vs TNF-α-stimulated control cells; for effect on TNF-α-induced ICAM-1 expression (in words): pretreatment 6 hours (up to 10 μmol/L)
Protocol: The expression of ICAM-1 on the cell surface was determined in HUVECs cultured in six-well plates pretreated with one of the three different p-substituted phenyl DIM analogs or with vehicle (0.1% DMSO) at the concentrations indicated. Their effects were compared with those of other PPARγ agonists by preincubating HUVECs with ciglitazone (Biomol, Plymouth meeting, Pa.) or 15d-PGJ2 (Calbiochem, San Diego, Calif.) at the same doses.
After 6 hours, cells were incubated with TNF-α (R&D Systems, Minneapolis, Minn.) at a concentration of 5 ng/ml for 12 hours. Cells were then detached with 10 mmol/L EDTA in 0.5% phosphate-buffered saline, collected by centrifugation, and stained for 30 minutes on ice in the dark with R-phycoerythrin-labeled monoclonal antibody against ICAM-1 (CD54) or with the appropriate R-phycoerythrin-labeled isotype IgG (Pharmingen, San Diego, Calif.) as a control.
The fluorescence intensity of 10,000 gated viable cells was analyzed for each sample on a FACSCalibur Flow Cytometer (Becton Dickinson Immunocytometry Systems, San Diego, Calif.) using Cell Quest (Becton Dickinson) acquisition software. All experiments were performed in triplicate.

IL-6 = IL-6 production in supernatants of TNF-α-stimulated HUVECs, ELISA; format: cell-based, human; details: for IL-6 level in supernatant after TNF-α stimulation: 10 μmol/L pretreatment 6 hours, then 5 ng/ml TNF-α 6 hours, TNF-α alone 228±12.7, baseline 52.8±7.5; for effect on TNF-α-induced IL-6 production (in words): 10 μmol/L pretreatment, 5 ng/ml TNF-α
Protocol: (§1) In order to measure chemokine levels in the cell supernatant, HUVECs cultured in 24-well plates were preincubated for 6 hours with one of the three p-substituted phenyl DIM analogs at the concentrations indicated or with vehicle and then stimulated with 5 ng/ml TNF-α. For comparison, HUVECs were also preincubated with ciglitazone or 15d-PGJ2 at the same concentrations and then stimulated with TNF-α at a concentration of 5 ng/ml. Cell culture supernatants were collected 6 and 24 hours after the stimulation for analysis of IL-6 and MCP-1, respectively.
(§2) The levels of IL-6 and MCP-1 were quantified using commercial ELISA kits (BioSource International, Camarillo, Calif.) according to the manufacturer's directions. The minimum detectable concentration of the assay was 2 pg/ml for IL-6 and <20 pg/ml for MCP-1. All experiments were performed in triplicate.
(§3) To determine the effects of the three p-substituted phenyl DIM analogs on TNF-α-induced chemokine production in HUVECs, cells were pretreated for 6 hours with one of the three analogs at the concentrations indicated or with vehicle and then stimulated with 5 ng/ml TNF-α for the indicated time before the chemokine assays were performed.

MCP-1 = MCP-1 production in supernatants of TNF-α-stimulated HUVECs, ELISA; format: cell-based, human; details: for MCP-1 level in supernatant after TNF-α stimulation: 10 μmol/L pretreatment 6 hours; for effect on TNF-α-induced MCP-1 production (in words): 10 μmol/L pretreatment, 5 ng/ml TNF-α
Protocol: as §1, §2, §3

HUVECs = assay: Treatment of unstimulated HUVECs: apoptosis and baseline ICAM-1 expression; details: up to 10 μmol/L, HUVECs without TNF-α (data not shown)
PPAR-γ = molecular target: T1, PPAR-γ (Homo sapiens, UniProt P37231); details: earlier structure-activity studies [5]; cited from earlier work
T1 sequence (P37231 1-505): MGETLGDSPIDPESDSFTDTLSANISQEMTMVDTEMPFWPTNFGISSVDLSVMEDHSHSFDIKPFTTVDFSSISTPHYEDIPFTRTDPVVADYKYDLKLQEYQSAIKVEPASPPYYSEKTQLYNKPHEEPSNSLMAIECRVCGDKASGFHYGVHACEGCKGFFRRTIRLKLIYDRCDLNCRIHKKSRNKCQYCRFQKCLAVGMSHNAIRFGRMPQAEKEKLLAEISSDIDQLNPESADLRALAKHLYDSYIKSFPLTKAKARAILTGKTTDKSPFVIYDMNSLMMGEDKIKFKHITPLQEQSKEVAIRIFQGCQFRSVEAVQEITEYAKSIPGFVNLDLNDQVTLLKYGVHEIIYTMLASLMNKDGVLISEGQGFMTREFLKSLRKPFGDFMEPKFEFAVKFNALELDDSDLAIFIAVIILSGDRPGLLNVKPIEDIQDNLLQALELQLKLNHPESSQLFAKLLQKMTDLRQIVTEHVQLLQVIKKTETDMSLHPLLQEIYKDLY

[1] = then 5 ng/ml TNF-α 24 hours, TNF-α alone 7.8±0.19, baseline 1.05±0.07

CCCCC/C=C/C=C1/C(=O)C=C[C@@H]1C/C=C\CCCC(=O)O [15d-PGJ2, 15-deoxy-δ^12,14-prostaglandin J2, reference compound]
reduction of TNF-α-induced ICAM-1 expression (ICAM-1): 84.4% | effect on TNF-α-induced ICAM-1 expression (in words) (ICAM-1): significantly inhibited; also recorded: decreased | IL-6 level in supernatant after TNF-α stimulation (IL-6): 29.8 ± 1.6 pg/mL | effect on TNF-α-induced IL-6 production (in words) (IL-6): significantly inhibited | MCP-1 level in supernatant after TNF-α stimulation (MCP-1; then 5 ng/mL TNF-α, comparison agonists): 1.5 ± 0.3 ng/mL | effect on TNF-α-induced MCP-1 production (in words) (MCP-1): significantly inhibited | change of baseline expression of ICAM-1 (HUVECs): did not induce apoptosis or change the baseline expression of ICAM-1

Cc1ccc(C(c2c[nH]c3ccccc23)c2c[nH]c3ccccc23)cc1 [DIM-C-pPhCH3]
reduction of TNF-α-induced ICAM-1 expression (ICAM-1): 32% | effect on TNF-α-induced ICAM-1 expression (in words) (ICAM-1): lower activity; also recorded: inactive | effect on TNF-α-induced IL-6 production (in words) (IL-6): lower activity; also recorded: did not decrease; also recorded: did not significantly inhibit | effect on TNF-α-induced MCP-1 production (in words) (MCP-1): lower activity; also recorded: did not decrease; also recorded: did not affect | PPAR-γ agonist activity (PPAR-γ): less active; also recorded: low PPAR-γ agonist activity; also recorded: relatively inactive

c1ccc(-c2ccc(C(c3c[nH]c4ccccc34)c3c[nH]c4ccccc34)cc2)cc1 [DIM-C-pPhC6H5, 1,1-bis(3′-indolyl)-1-(p-biphenyl) methane]
reduction of TNF-α-induced ICAM-1 expression (ICAM-1): 71.3% | effect on TNF-α-induced ICAM-1 expression (in words) (ICAM-1): inhibited; also recorded: decreased | IL-6 level in supernatant after TNF-α stimulation (IL-6): 143.4 ± 12.2 pg/mL | effect on TNF-α-induced IL-6 production (in words) (IL-6): inhibited | MCP-1 level in supernatant after TNF-α stimulation (MCP-1; [1]): 2.2 ± 0.49 ng/mL | effect on TNF-α-induced MCP-1 production (in words) (MCP-1): inhibited | PPAR-γ agonist activity (PPAR-γ): potent; also recorded: active agents

CC1(COc2ccc(CC3SC(=O)NC3=O)cc2)CCCCC1 (stereo not shown) [ciglitazone, reference compound]
effect on TNF-α-induced ICAM-1 expression (in words) (ICAM-1): inactive; also recorded: no inhibitory effect | IL-6 level in supernatant after TNF-α stimulation (IL-6): 207 ± 13 pg/mL | effect on TNF-α-induced IL-6 production (in words) (IL-6): inactive | effect on TNF-α-induced MCP-1 production (in words) (MCP-1): inactive | induction of apoptosis (HUVECs): did not induce apoptosis

CC(C)(C)c1ccc(C(c2c[nH]c3ccccc23)c2c[nH]c3ccccc23)cc1 [DIM-C-pPhtBu, 1,1-bis(3′-indolyl)-1-(p-t-butylphenyl) methane]
reduction of TNF-α-induced ICAM-1 expression (ICAM-1): 77.5% | effect on TNF-α-induced ICAM-1 expression (in words) (ICAM-1): inhibited; also recorded: decreased the expression of ICAM-1 in a concentration-dependent manner | IL-6 level in supernatant after TNF-α stimulation (IL-6): 130.3 ± 19.3 pg/mL | effect on TNF-α-induced IL-6 production (in words) (IL-6): inhibited | MCP-1 level in supernatant after TNF-α stimulation (MCP-1; [1]): 3.9 ± 0.41 ng/mL | effect on TNF-α-induced MCP-1 production (in words) (MCP-1): inhibited | PPAR-γ agonist activity (PPAR-γ): potent; also recorded: active agents

Source: patent publication US20060079568A1, “Inhibition of atherosclerosis by diindolylmethane analogs” (The Texas A&M University System, priority 2004, published 2006)
